# Where two headings read alike, the source gives them in different places.
# What was measured:
# [1] = Plasma protein binding rate (equilibrium dialysis); assay type: in vitro ADME; conditions: mouse plasma, equilibrium dialysis 37° C. 5 hours
# Experimental: Test Embodiment 8. Plasma Protein Binding Rate Experiment
# The purpose of this experimental method was to detect the plasma protein binding of the embodiment compounds in plasma.
# The frozen plasma was thawed at room temperature or in a water bath at 37° C., then centrifuged at 3500 rpm for 5 min, and the supernatant was taken.
# Preparation of compound working solution: Stock solutions were diluted with DMSO to a final concentration of 1 mM.
# 2.5 μL of compound working solution was added to 497.5 μL of blank plasma to a final concentration of 5 μM, shaked and mixed well.
# 1) The equilibrium dialysis device was prepared, and the detection membrane device was put into the equilibrium dialysis 96-well plate;
# 2) 200 μL of the prepared plasma solution was added to the membrane, n=2;
# 3) another 5 μL of plasma solution was taken, diluted 10 times with 45 μL of blank plasma of the same species, and 200 μL of acetonitrile termination solution containing internal standard was added, and stored in a −20° C. refrigerator;
# 4) 350 μL of dialysate (100 mM phosphate buffer) was added outside the membrane;
# 5) the dialysis plate was sealed and incubated in a 37° C. water bath for 5 hours;
# 6) after dialysis, 5 μL was taken out from the sample hole in the membrane, and diluted 10 times with 45 μL of blank plasma of the same species; 50 μL of dialysate was taken out from the sample hole outside the membrane, and 200 μL of acetonitrile termination solution containing internal standard was added;
# 7) the supernatant was taken after sample centrifugation;
# human PD-L1 protein = biological target: T1, human PD-L1 protein (Homo sapiens, UniProt Q9NZQ7); assay: Thermal shift: melting temperature of PD-L1 protein; assay type: binding; conditions: read-out: ΔTm (° C.)
# T1 construct: purchased Acro Biosystems PD1-H5229
# T1 sequence (Q9NZQ7 19-238 limits assumed): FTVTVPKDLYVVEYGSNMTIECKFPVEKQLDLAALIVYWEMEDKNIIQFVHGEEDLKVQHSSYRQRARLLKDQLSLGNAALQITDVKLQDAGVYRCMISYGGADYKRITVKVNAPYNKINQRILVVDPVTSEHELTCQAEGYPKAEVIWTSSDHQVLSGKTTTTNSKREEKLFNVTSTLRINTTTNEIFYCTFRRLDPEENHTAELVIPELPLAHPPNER
# How it was run: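 Human PD-L1 at 2 μM final was tested in […], 150 mM NaCl with SYPRO Orange, heated 25→95 °C at 0.03 °C/s in a PCR melt-curve run. Tm was taken per treatment; ΔTm is the shift relative to DMSO vehicle.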
# [2] = system: CHO-PDL1/Jurkat-PD1 cell pathway; assay: Inhibition of CHO-PDL1/Jurkat-PD1 cell pathway (NFAT luciferase reporter); assay type: cell-based; conditions: for EC50: 6 hours incubation, luciferase signal; for maximal fold induction: relative to the signal value of the non-dosed group, read-out: Maximum induction fold
# How it was run: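 CHO-K1 cells stably expressing PD-L1, plated overnight, then co-cultured with PD-1/NFAT-luc2 Jurkat cells plus compounds in RPMI 1640 with 2% FBS for 6 h at 37 °C. Luminescence read after One-Glo, 10 min at RT. EC50 fitted from the concentration–signal curve; maximum induction fold calculated relative to the non-dosed group.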
# [3] = system: NFAT-luc2/PD1 Jurkat cells; assay: In vitro cytotoxicity on NFAT-luc2/PD1 Jurkat cells (CellTiter-Glo); assay type: cell-based; conditions: 72 hours; for IC50: Homo sapiens, Jurkat
# How it was run: (§1)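 Cells plated overnight at 37° C, 5% CO2, then exposed to serial compound dilutions for 72 hours. Viability measured by CellTiter-Glo luminescence; inhibition rate versus vehicle fitted by nonlinear regression to give IC50.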
# MC38-hPDL1 cells = assay: In vitro cytotoxicity on MC38-hPDL1 cells (CellTiter-Glo); assay type: cell-based, mouse; conditions: for MC38-hPDL1 inhibition rate (%): 72 hours; for IC50: Mus musculus, MC38-hPD-L1, 72 hours
# How it was run: as §1
# [4] = compound 10 μM, PD-L1 protein 2 μM, Tm minus DMSO vehicle control
"fraction unbound at 5 h, 5 μM [1]",ΔTm at 10 µM (human PD-L1 protein; [4]) [°C],Compound,ΔTm at 10 µM (human PD-L1 protein) [°C],EC50 [2] [nM],maximal fold induction [2],Jurkat-PD1 inhibition rate (%) [3],IC50 [3] [nM],MC38-hPDL1 inhibition rate (%) (MC38-hPDL1 cells),IC50 (MC38-hPDL1 cells) [nM]
0.0033,17.9,"COc1nc(-c2cccc(-c3cccc(NC(=O)c4nc5c(n4C)CCN(C)C5)c3Cl)c2Cl)ccc1CNC1COC1 [Embodiment 114, N-(2,2′-Dichloro-3′-(6-methoxy-5-((oxetan-3-ylamino)methyl)pyridin-2-yl)-[1,1′-biphenyl]-3-yl)-1,5-dimethyl-4,5,6,7-tetrahydro-1H-imidazo[4,5-c]pyridine-2-carboxamide]",,,,69.0%^,7630,14.0%^,> 10000
0.0052,18,"COc1nc(-c2cccc(-c3cccc(NC(=O)c4nc5c(n4C)CCN(C)C5)c3Cl)c2Cl)ccc1CN[C@H]1CCOC[C@@H]1O (relative stereo) [Embodiment 175, N-(2,2′-Dichloro-3′-(5-((((3,4-trans)-3-hydroxytetrahydro-2H-pyran-4-yl)amino)methyl)-6-methoxypyridin-2-yl)-[1,1′-biphenyl]-3-yl)-1,5-dimethyl-4,5,6,7-tetrahydro-1H-imidazo[4,5-c]pyridine-2-carboxamide]",,86,3.6,,,,
0.0181,16.8,"COc1nc(-c2cccc(-c3cccc(NC(=O)c4nc5c(n4C)CCN(C)C5)c3Cl)c2Cl)cnc1CN1CC2(C1)CN(C(C)=O)C2 [Embodiment 152, N-(3′-(5-((6-Acetyl-2,6-diazaspiro[3.3]heptan-2-yl)methyl)-6-methoxypyrazin-2-yl)-2,2′-dichloro-[1,1′-biphenyl]-3-yl)-1,5-dimethyl-4,5,6,7-tetrahydro-1H-imidazo[4,5-c]pyridine-2-carboxamide]",,66,3.4,97%,4460,15%,> 10000

Compound,"fraction unbound at 5 h, 5 μM [1]",ΔTm at 10 µM (human PD-L1 protein; [4]) [°C],ΔTm at 10 µM (human PD-L1 protein) [°C],EC50 [2] [nM],maximal fold induction [2],Jurkat-PD1 inhibition rate (%) [3],IC50 [3] [nM],MC38-hPDL1 inhibition rate (%) (MC38-hPDL1 cells),IC50 (MC38-hPDL1 cells) [nM]
"COc1nc(-c2cccc(-c3cccc(NC(=O)c4nc5c(n4C)CCN(C)C5)c3Cl)c2Cl)ccc1CN1CC2(C1)CN(C(C)=O)C2 [Embodiment 123, N-(3′-(5-((6-Acetyl-2,6-diazaspiro[3.3]heptan-2-yl)methyl)-6-methoxypyridin-2-yl)-2,2′-dichloro-[1,1′-biphenyl]-3-yl)-1,5-dimethyl-4,5,6,7-tetrahydro-1H-imidazo[4,5-c]pyridine-2-carboxamide]",0.0095,,16.5,27,3.4,,,,
"CCC(=O)N1CC2(CN(Cc3ccc(-c4cccc(-c5cccc(NC(=O)c6nc7c(n6C)CCN(C)C7)c5Cl)c4Cl)nc3OC)C2)C1 [Embodiment 188, N-(2,2′-Dichloro-3′-(6-methoxy-5-((6-propionyl-2,6-diazaspiro[3.3]heptan-2-yl)methyl)pyridin-2-yl)-[1,1′-biphenyl]-3-yl)-1,5-dimethyl-4,5,6,7-tetrahydro-1H-imidazo[4,5-c]pyridine-2-carboxamide]",0.0052,,16.5,93,3.8,,,,

# Source: patent US20230105212A1, “BIPHENYL DERIVATIVE INHIBITOR, PREPARATION METHOD THEREFOR AND USE THEREOF” (SHANGHAI HANSOH BIOMEDICAL CO., LTD., priority 2020, published 2023)
